Results taken from US10538515B2, “Isatin-derived compounds, use of the compounds for the treatment of AIDS and method of treatment using these compounds” (FUNDAÇÄO OSWALDO CRUZ, priority 2016, dated 2020).
Like-named read-outs stand apart in the source and are kept apart here.

Columns and labels:
Cytotoxicity assay (MTT) = format: cell-based; settings: human
Protocol: (§1) The T-lymphocyte cell line (Suptl) was cultured in an RPMI 1640 medium (GIBICO). The cultures were supplemented with 10% Fetal Bovine Serum (SFB; HyClone, Logan, Utah, USA), 100 U/mL of penicillin and […] of streptomycin, and incubated at 37° C., in an atmosphere of 5% CO2. Virus stocks were prepared using the methodology described by Souza and Denizot (SOUZA, T. M. L; RODRIGUES, D. Q.; […], V. F.; MARQUES, I. P.; DE SOUZA, M. C. B. V.; […], I. C. P. P.; BOU-HABIB, D. C; FONTES, C. F. L. Characterization of HIV-1 enzyme reverse transcriptase inhibition by the compound 6-chloro-1.4-dihydro-4-oxo-1-(β-D-ribofuranosyl) quinoline-3-carboxylic acid through kinetic and in silico studies. Current HIV Research, v. 7, No 3, page 327-335, 2009. DENIZOT, F.; LANG, R. Rapid colorimetric assay for cell growth and survival. Modifications to the tetrazolium dye procedure giving improved sensitivity and reliability. The Journal of Immunological Methods, v. 89, No 2, page 271-277, 1986).
(§2) . They were then run through an MTT assay (3-(4,5-dimethylazol-2-yl)-2.5-diphenyl tetrazolium bromide) in order to analyze cell induction infeasibility. MTT is a colorimetric method that measures mitochondrial dehydrogenase activity based on the ability of live cells to reduce 3-(4,5-methylazol-2-yl)-2.5-diphenyl tetrazolium bromide salt in the product. A […] solution of 3-(4,5-dimethylthiazol-2-yl)-2.5-diphenyl tetrazolium bromide (1 mg/ml) (MTT, Sigma) was thus added to the cells, kept in Dulbecco's Modified Eagle's medium (DMEM) without serum. The MTT was removed after three hours and, after adding […] of isopropanol acid (0.04N HCl in isopropanol), the optical density (OD) was determined using a wavelength range of 570 to 690 nm, according to KUO et al (KUO, Y. C; CHEN, C. C; TSA, W. J.; HO, Y. H. Regulation of type 1 herpes simplex virus replication in vero cells by Psychotriaserpens: relationship to gene expression, DNA replication, and protein synthesis. Antiviral Research, v. 51, No 2, pages 95 to 109, 2001). The dye coloring has different optical densities, depending on mitochondrial metabolism after treating cells with different concentrations of the new derivatives or the absence thereof. The 50% cytotoxic concentration (CC50) was calculated through linear regression analysis from the dose-response curve obtained from experimental data.

[1] = system: Suptl cells (T-lymphocyte cell line); assay: Cytotoxicity assay (MTT); format: cell-based; settings: 50% cytotoxic concentration, 72 hours, MTT; read-out: CC50
Protocol: as §1, §2

[2] = biological target: T1, recombinant HIV-1 reverse transcriptase (RTHXB2) (Human immunodeficiency virus type 1 group M subtype B, UniProt P04585); assay: Reverse transcriptase inhibition activity (RDDP, [3H]dTTP incorporation); format: biochemical; settings: for IS: CC50 / CI50
T1 construct: The enzyme is derived from a polyprotein encoded by the virus, processed by the viral protease
Protocol: Reverse Transcriptase Inhibition Activity
The RDDP activity was determined in 50 mM Tris HCl (pH 7.8), 6 mM MgCl2, 1 mM dithiothreitol, 50 mM KCl, 5 μM dTTP, […] poly (rA) oligo (dT) template primer (Pharmacia, Piscataway, N.J., USA) and 3 U of enzyme (one unit is the enzyme concentration incorporating dTTP […] per minute per mg of enzyme at 37° C. under standard conditions). The reaction isotope dilutions were prepared at 2 μCi of [3H] dTTP (49 Ci/mmol)/2,7μ dTTP. The reaction was initiated at 37° C., incubated for 30 minutes and halted with 0.5M EDTA. The precipitate was collected on Whatman 81 filter paper and washed with 0.1 M sodium phosphate. The incorporated nucleotides were measured by liquid scintillation. The 50% inhibitory concentration (Ciso) was determined by linear regression analysis of the dose-response curve obtained from experimental data. The polymerization reaction was conducted in the presence and absence of test substances, as well as the presence and absence of standards.
All tests were conducted on three separate occasions. At least three independent experiments were performed and triplicates were run for each concentration.

[3] = Suptl cells (T-lymphocyte cell line), 50% cytotoxic concentration, 72 hours, MTT, read-out: CC50
[4] = 50% inhibitory concentration, mean of three independent experiments, read-out: CI50 (the source's name)
[5] = 50% cytotoxic concentration, 72 hours, MTT, read-out: CC50

Work on `O=C1Nc2ccc(Cl)cc2[C@@](C#CC2CC2)(C(F)(F)F)O1` [Efavirenz, reference compound] yielded a CC50 at 72 h (Cytotoxicity assay (MTT); [3]) of 88 µM.
For `Cc1cn(C2CC(n3cc(CN4C(=O)C(F)(F)c5ccccc54)nn3)C(CO)O2)c(=O)[nH]c1=O` (stereo not shown) [IIIa, 1-(4-(4-((3,3-difluor-2-oxoindolin-1-yl)methyl)-1H-1,2,3-triazole-1-yl)-5-(hydroxymethyl)tetrahydrofuran-2-yl)-5-methylpyrimidine-2.4(1H,3H)-dione], the CC50 [1] was 835 µM, the “RT enzyme inhibition activity compared with benchmarks (in words)” value [2] was “more active than the nevirapine and tenofovir benchmarks” and the IC50 [2, 4] was 0.6 µM. It also gave an IS [2] of 1392.
With `Cc1ccc2c(c1)C(F)(F)C(=O)N2Cc1cn(C2CC(n3cc(C)c(=O)[nH]c3=O)OC2CO)nn1` (stereo not shown) [IIIb, 1-(4-(4-((3,3-difluor-5-methyl-2-oxoindolin-1-yl)methyl)-1H-1,2,3-triazole-1-yl)-5-(hydroxymethyl)tetrahydrofuran-2-yl)-5-methylpyrimidine-2.4(1H,3H)-dione] the CC50 [1] was > 100 µM and the IC50 [2, 4] was 3.2 µM.
For `Cc1cn(C2CC(n3cc(CN4C(=O)C(F)(F)c5cc(Cl)ccc54)nn3)C(CO)O2)c(=O)[nH]c1=O` (stereo not shown) [IIIc, 1-(4-(4-((5-chloro-3.3-difluor-2-oxoindolin-1-yl)methyl)-1H-1,2,3-triazole-1-yl)-5-(hydroxymethyl)tetrahydrofuran-2-yl)-5-methylpyrimidine-2.4(1H,3H)-dione], the CC50 [1] was 1050 µM, the “RT enzyme inhibition activity compared with benchmarks (in words)” value [2] was “more active than the nevirapine and tenofovir benchmarks” and the IC50 [2, 4] was 0.8 µM. For the same compound, the IS [2] was 1318.
For `CCOP(=O)(Cn1cc(CN2C(=O)C(F)(F)c3ccccc32)nn1)OCC` [IIId, diethyl ((4-((3,3-difluor-2-oxoindolin-1-yl)methyl)-1H-1,2,3-triazole-1-yl)methyl) phosphonate], the CC50 [1] was 1500 µM, the IC50 [2, 4] was 1.2 µM and the IS [2] was 1247.
In the case of `CCOP(=O)(Cn1cc(CN2C(=O)C(F)(F)c3cc(C)ccc32)nn1)OCC` [IIIe, diethyl ((4-((3,3-difluor-5-methyl-2-oxoindolin-1-yl)methyl)-1H-1,2,3-triazole-1-yl)methyl) phosphonate], the CC50 [1] is reported as > 100 µM and the IC50 [2, 4] is reported as 2.2 µM.
For `CCOP(=O)(Cn1cc(CN2C(=O)C(F)(F)c3cc(Cl)ccc32)nn1)OCC` [IIIf, diethyl ((4-((5-chloro-3.3-difluor-2-oxoindolin-1-yl)methyl)-1H-1,2,3-triazole-1-yl)methyl) phosphonate], the CC50 [1] was 1900 µM, the “RT enzyme inhibition activity compared with benchmarks (in words)” value [2] was “more active than the nevirapine and tenofovir benchmarks” and the IC50 [2, 4] was 0.9 µM. The IS [2] was 2106.
In the case of `Cc1cn(C2CC(n3cc(CN4C(=O)C(O)(C#CC5CC5)c5ccccc54)nn3)C(CO)O2)c(=O)[nH]c1=O` (stereo not shown) [IIa], the CC50 at 72 h (Cytotoxicity assay (MTT); [3]) is reported as > 100 µM and the IC50 [2] is reported as 2.1 µM.
For `Cc1ccc2c(c1)C(O)(C#CC1CC1)C(=O)N2Cc1cn(C2CC(n3cc(C)c(=O)[nH]c3=O)OC2CO)nn1` (stereo not shown) [IIb, 1-(4-(4-((3-(cyclopropylethanol)-3-hydroxy-5-methyl-2-oxoindolin-1-yl)methyl)-1H-1,2,3-triazole-1-yl)-5-(hydroxymethyl)tetrahydrofuran-2-yl)-5-methylpyrimidine-2.4(1H,3H)-dione], the CC50 at 72 h (Cytotoxicity assay (MTT); [3]) was > 100 µM and the IC50 [2] was 3.3 µM.
For `Cc1cn(C2CC(n3cc(CN4C(=O)C(O)(C#CC5CC5)c5cc(Cl)ccc54)nn3)C(CO)O2)c(=O)[nH]c1=O` (stereo not shown) [IIc], the CC50 at 72 h (Cytotoxicity assay (MTT); [3]) was > 100 µM and the IC50 [2] was 3.1 µM.
With `CCOP(=O)(Cn1cc(CN2C(=O)C(O)(C#CC3CC3)c3ccccc32)nn1)OCC` (stereo not shown) [IId] the CC50 at 72 h (Cytotoxicity assay (MTT); [5]) was > 100 µM and the IC50 [2] was 3.5 µM.
For `CCOP(=O)(Cn1cc(CN2C(=O)C(O)(C#CC3CC3)c3cc(C)ccc32)nn1)OCC` (stereo not shown) [IIe, diethyl ((4-((3-(cyclopropylethanol)-3-hydroxy-5-methyl-2-oxoindolin-1-yl)methyl-1,2,3-triazole-1-yl)methyl) phosphonate], the CC50 at 72 h (Cytotoxicity assay (MTT); [5]) was > 100 µM and the IC50 [2] was 1.8 µM.
With `Cc1cn(C2CC(n3cc(CN4C(=O)C(=O)c5ccccc54)nn3)C(CO)O2)c(=O)[nH]c1=O` (stereo not shown) [Ia, 1-((1-(2-(hydroxymethyl)-5-(5-methyl-2.4-dioxo-3.4-dihydropyrimidine-1(2H)-yl)tetrahydrofuran-3-yl)-1H-1,2,3-triazole-4-yl)methyl)indolin-2.3-dione] the CC50 at 72 h (Cytotoxicity assay (MTT); [3]) was > 100 µM and the IC50 [2] was 2.5 µM.
With `Cc1ccc2c(c1)C(=O)C(=O)N2Cc1cn(C2CC(n3cc(C)c(=O)[nH]c3=O)OC2CO)nn1` (stereo not shown) [Ib] the CC50 at 72 h (Cytotoxicity assay (MTT); [3]) was > 100 µM and the IC50 [2] was 1.9 µM.
In the case of `Cc1cn(C2CC(n3cc(CN4C(=O)C(=O)c5cc(Cl)ccc54)nn3)C(CO)O2)c(=O)[nH]c1=O` (stereo not shown) [Ic, 5-chloro-1-((1-(2-(hydroxymethyl)-5-(5-methyl-2.4-dioxo-3.4-dihydropyrimidine-1(2H)-yl)tetrahydrofuran-3-yl)-1H-1,2,3-triazole-4-yl)methyl)indolin-2.3-dione], the CC50 at 72 h (Cytotoxicity assay (MTT); [3]) is reported as > 100 µM and the IC50 [2] is reported as 1.9 µM.
For `CC(C)CN(CC(O)C(Cc1ccccc1)NC(=O)OC1CCOC1)S(=O)(=O)c1ccc(-n2cc(CN3C(=O)C(=O)c4ccccc43)nn2)cc1` [Id, tetrahydrofuran-3-yl ((2S)3R)-4-(4-(4-((2.3-dioxoindolin-1-yl)methyl)-1H-1,2,3-triazole-1-yl)-N-isobutylphenylsulfonamide)-3-hydroxy-1-phenylbutan-2-yl) carbamate], the CC50 at 72 h (Cytotoxicity assay (MTT); [3]) was > 100 µM and the IC50 [2] was 1.5 µM.
For `Cc1ccc2c(c1)C(=O)C(=O)N2Cc1cn(-c2ccc(S(=O)(=O)N(CC(C)C)CC(O)C(Cc3ccccc3)NC(=O)OC3CCOC3)cc2)nn1` [Ie, tetrahydrofuran-3-yl ((2S,3R)-3-hydroxy-4-(N-isobutyl-4-(4-((5-methyl-2.3-dioxoindolin-1-yl)methyl)-1H-1,2,3-triazole-1-yl)phenylsulfonamide)-1=phenylbutan-2-yl)carbamate], the CC50 at 72 h (Cytotoxicity assay (MTT); [3]) was > 100 µM, the IC50 [2] was 0.9 µM and the “RT enzyme inhibition activity compared with benchmarks (in words)” value [2] was “more active than the nevirapine and tenofovir benchmarks”.
In the case of `CCOP(=O)(Cn1cc(CN2C(=O)C(=O)c3ccccc32)nn1)OCC` [If, diethyl ((4-((2.3-dioxoindolin-1-yl)methyl)-1H-1,2,3-triazole-1-yl)methyl) phosphonate], the CC50 at 72 h (Cytotoxicity assay (MTT); [5]) is reported as 2320 µM, the IC50 [2] is reported as 1.3 µM and the IS [2] is reported as 1,782.
For `CCOP(=O)(Cn1cc(CN2C(=O)C(=O)c3cc(C)ccc32)nn1)OCC` [Ig, diethyl ((4-((5-methyl-2.3-dioxoindolin-1-yl)methyl)-1H-1,2,3-triazole-1-yl)methyl) phosphonate], the CC50 at 72 h (Cytotoxicity assay (MTT); [5]) was 2060 µM, the IC50 [2] was 0.7 µM and the “RT enzyme inhibition activity compared with benchmarks (in words)” value [2] was “more active than the nevirapine and tenofovir benchmarks”. The IS [2] was 2,940.
For `CCOP(=O)(Cn1cc(CN2C(=O)C(=O)c3cc(Cl)ccc32)nn1)OCC` [Ih, diethyl ((4-((5-chloro-2.3-dioxoindolin-1-yl)methyl)-1H-1,2,3-triazole-1-yl)methyl) phosphonate], the CC50 at 72 h (Cytotoxicity assay (MTT); [5]) was > 100 µM and the IC50 [2] was 1.2 µM.
Compound `Cc1ccnc2c1NC(=O)c1cccnc1N2C1CC1` [Nevirapine, reference compound] has a CC50 at 72 h (Cytotoxicity assay (MTT); [3]) of 895 µM and an IS [2] of 746.
With `Cc1cn([C@H]2C[C@H](N=[N+]=[N-])[C@@H](CO)O2)c(=O)[nH]c1=O` [Zidovudine, reference compound] the CC50 at 72 h (Cytotoxicity assay (MTT)) was 126 µM, the IC50 [2] was 0.01 µM and the IS [2] was 12,600.
